In brackets after ≈: the same amount, converted by molar mass. Several values for one entry are separate records, joined by “and”; a condition that tells them apart may be missing. Equal values may be shown once. Where a name gives a salt, the structure may show the parent alone. Read-outs that look alike come from different tables or passages of the source.
Tests used:
[1] = Approximate visual solubility in receiver fluids; format: physicochemical
Method: The visual solubility of each receiver fluid shown in Table 3 below was initially tested for ketoconazole (BUFA B.V.) and ciclopirox (PCAS Finland Oy). Additional solubility testing was then conducted for terbinafine hydrochloride (QueMaCo Ltd.), amorolfine hydrochloride (Inter-Chemical Ltd.) and itraconazole EP (Shamrock, UK) and the results are shown in Table 3.
The solubility of terbinafine hydrochloride, fluconazole, itraconazole and amorolfine hydrochloride was determined in PBS and 5% Tween 80 and the results are summarized in Table 4.

[2] = test system: C. albicans; assay: Permeation across full thickness nail (ChubTur cell), receiver fluid assayed by C. albicans growth absorbance; format: cell-based; settings: for Absorbance: replicates 1-3, full thickness human nail, C. albicans, 600 nm; for permeation across full thickness nail: all conditions tested (cathodal, anodal, passive)
[3] = format: in vitro ADME, human
Method: Prehydrated cadaver finger nails (approximately 0.5-0.7 mm thickness) or bovine hooves (approximately 0.25 mm thickness) were used for comparing different formulations as described in Examples 8-10. […] A nail adaptor was required to accommodate the curvature of the nail, but not for the hoof. The receptor compartments were filled with receiver fluid (3-5 ml water pH 3) and the drug formulations described above (0.5-2 mL) were placed in the donor compartment. […] Receptor levels of drug permeated were analyzed. Aliquots removed were replaced with an equal amount of buffer, and were assayed by HPLC to measure terbinafine HCl permeation through the nail or hoof. Control passive experiments were conducted in the same way except for the application of electric current. Nails or hooves were taken out of the FDC and drug extracted as described in Example 4. The drug loading levels in the nail or hoof were expressed as mg terbinafine HCl per g of nail or hoof. Data were expressed as means ±standard deviations. All experiments were performed in triplicate. […] The four formulations were evaluated for permeation of terbinafine HCl through the nail and loading in the nail as described in Example 8. Formulations containing benzoic acid improved permeation of terbinafine HCl through the nail over the base glycerin formulation without benzoic acid (FIG. 7A).

[4] = aqueous with cosolvent or surfactant or cyclodextrin, Approximate visual solubility

CCC(C)(C)c1ccc(CC(C)CN2C[C@@H](C)O[C@@H](C)C2)cc1 (stereo partly shown) [Amorolfine hydrochloride, amorolfine hydrochloride]
solubility [1, 4]: 2050 to 2570 µg/mL
Absorbance ([2]; Anodal iontophoresis (1000 μA, 1 hr), listed as Amorolifine, hydrochloride): 0.54 and 0.44 and 0.40
Absorbance ([2]; Cathodal iontophoresis, controls: no C. albicans 0.037-0.039, no compound 0.126-0.160, listed as Amorolifine, hydrochloride): 0.50 and 0.54 and 0.49
Absorbance ([2]; Passive permeation, listed as Amorolifine, hydrochloride): 0.48 and 0.59 and 0.54
permeation across full thickness nail [2]: did not show permeation of the nail under any conditions tested

Cc1cc(C2CCCCC2)n(O)c(=O)c1 [Ciclopirox olamine, ciclopirox olamine]
Absorbance ([2]; Anodal iontophoresis (1000 μA, 1 hr)): 0.042 and 0.079
Absorbance ([2]; Cathodal iontophoresis, controls: no C. albicans 0.037-0.039, no compound 0.126-0.160): 0.048
Absorbance ([2]; Passive permeation): 0.157 and 0.129
permeation across full thickness nail (detection in receiver fluid) ([2]; both cathodal and anodal iontophoresis): detected in the receiver fluid
permeation across full thickness nail (detection in receiver fluid) ([2]; passive delivery): not with passive delivery

OC(Cn1cncn1)(Cn1cncn1)c1ccc(F)cc1F [Fluconazole, fluconazole]
solubility ([1]; aqueous with cosolvent or surfactant or cyclodextrin, PBS and 5% Tween 80 (Table 4), read-out: Approximate visual solubility): 1910 to 2170 µg/mL (≈ 6240 to 7090 µM)

CCC(C)n1ncn(-c2ccc(N3CCN(c4ccc(OCC5COC(Cn6cncn6)(c6ccc(Cl)cc6Cl)O5)cc4)CC3)cc2)c1=O (stereo not shown) [Itraconazole, itraconazole]
solubility [1, 4]: < 330 µg/mL

Cc1cc(C2CCCCC2)n(O)c(=O)c1 [ciclopirox]
solubility in receiver fluid (in words) [1]: good solubility
solubility ([1]; aqueous buffer, Approximate visual solubility): < 388 µg/mL
Absorbance ([2]; Anodal iontophoresis (1000 μA, 1 hr), listed as Ciclopirox): 0.045 and 0.044 and 0.068
Absorbance ([2]; Cathodal iontophoresis, controls: no C. albicans 0.037-0.039, no compound 0.126-0.160, listed as Ciclopirox): 0.075 and 0.085 and 0.079
Absorbance ([2]; Passive permeation, listed as Ciclopirox): 0.075 and 0.046
permeation across full thickness nail [2]: appeared to penetrate the nail regardless of whether current was applied

CC(=O)N1CCN(c2ccc(OCC3COC(Cn4ccnc4)(c4ccc(Cl)cc4Cl)O3)cc2)CC1 (stereo not shown) [ketoconazole]
solubility in receiver fluid (in words) ([1]; PBS and 5% Tween 80): good solubility
solubility ([1]; aqueous buffer, 1% Propylene glycol in PBS, read-out: Approximate visual solubility): < 554 µg/mL
solubility ([1]; aqueous with cosolvent or surfactant or cyclodextrin, 20 mM B hydroxylpropyl cyclodextrin in PBS, read-out: Approximate visual solubility): < 1030 µg/mL
solubility ([1]; aqueous with cosolvent or surfactant or cyclodextrin, 200 mM B hydroxylpropyl cyclodextrin in PBS, read-out: Approximate visual solubility): 2120 to 2370 µg/mL (≈ 3990 to 4460 µM)
solubility ([1]; aqueous with cosolvent or surfactant or cyclodextrin, 0.5% Tween-80 in PBS, read-out: Approximate visual solubility): < 412 µg/mL
solubility ([1]; aqueous with cosolvent or surfactant or cyclodextrin, 1% Tween-80 in PBS, read-out: Approximate visual solubility): < 458 µg/mL
solubility ([1]; aqueous with cosolvent or surfactant or cyclodextrin, 2% Tween-80 in PBS, read-out: Approximate visual solubility): < 646 µg/mL
solubility ([1]; aqueous with cosolvent or surfactant or cyclodextrin, 5% Ethanol in PBS, read-out: Approximate visual solubility): < 910 µg/mL
solubility ([1]; aqueous with cosolvent or surfactant or cyclodextrin, 5% Propylene glycol in PBS, read-out: Approximate visual solubility): < 472 µg/mL
solubility ([1]; aqueous with cosolvent or surfactant or cyclodextrin, 5% Tween-80 in PBS, read-out: Approximate visual solubility): 1280 to 1530 µg/mL (≈ 2410 to 2880 µM)
solubility ([1]; aqueous with cosolvent or surfactant or cyclodextrin, 10% Ethanol in PBS, read-out: Approximate visual solubility): < 438 µg/mL
solubility ([1]; aqueous with cosolvent or surfactant or cyclodextrin, 20% Ethanol in PBS, read-out: Approximate visual solubility): < 398 µg/mL

PEG 400
permeation of terbinafine HCl through the nail (in words) [3]: further improved the permeation of terbinafine HCl through the nail
